Paper PMC8305101, “Synthesis and Cytotoxicity Evaluation of Spirocyclic Bromotyrosine Clavatadine C Analogs” (Marine Drugs, 2021)
Values joined by “and” are separate entries in the source; they are usually repeats but may differ in a detail not shown here. Identical values can stand only once. Counter-ions that a name gives are not always drawn. Like-named read-outs stand apart in the source and are kept apart here.

Experiments:
[1] = tested on: MDA-MB-231 (breast) cancer cell line; design: method as in doi:10.1016/j.tetlet.2016.10.019; details: cited from earlier work
[2] = tested on: MCF7 (breast) cancer cell line; design: method as in doi:10.1016/j.tetlet.2016.10.019; details: cited from earlier work
[3] = tested on: A549 (lung) cancer cell line; design: method as in doi:10.1016/j.tetlet.2016.10.019; details: cited from earlier work
[4] = tested on: human malignant melanoma A-375 cell line; test: Cytotoxicity in A-375 melanoma cells (CellTiter-Glo ATP viability); assay type: cell-based; details: for CC50 / cytotoxicity at 50 µM: Homo sapiens; for CC50: read-out: CC50 (µM) in A-375 Cells; for Selectivity Index (SI): ratio of CC50 values between Hs27 fibroblasts and A-375 melanoma cells, SD in parentheses
Protocol: (§1) Analysis of selectivity to cancer cells. The cells were seeded to white frame and clear bottom 96-well plates (Perkin Elmer) at a density of 10,000 cells/well for the human malignant melanoma A-375 cell line (ATCC CRL-1619) and 7500 cells/well for the human skin fibroblast Hs27 cell line (ATCC CRL-1634). The cells were grown at 37 °C, 5% CO2 until they reached 70–80% confluence (approximately 24 h). Stock solutions of test compounds and a positive control (camptothecin, Sigma-Aldrich, St. Louis, MO, USA) were prepared in DMSO and diluted into the assay medium (growth medium with 5% FBS) to the final concentration. Final DMSO concentration was 0.5% in all samples. The culture medium was removed from the plate and compounds added, 200 µL/well. After a 48-h incubation, the amount of ATP, which is directly proportional to the number of viable cells present in culture, was quantified using CellTiter-Glo® Luminescent Cell Viability kit (Promega, Madison, WI, USA), according to manufacturer’s instructions. Origin Graphing and Analysis, version 9.55 (OriginLab, Northampton, MA, USA), was used for determination of CC50 values. The cancer cell selectivity index was calculated as a ratio of CC50 values between Hs27 fibroblasts and A-375 melanoma cells. Standard deviation of selectivity indices was calculated using Equation (1) (1) σ(x¯/y¯)=(σ(x)/x¯)^2+(σ(y)/y¯)^2

[5] = tested on: Mel-Juso melanoma cell line; design: method as in PMID 32228987; details: Mel-Juso melanoma cells; cited from earlier work
[6] = tested on: SKMel-147 melanoma cell line; design: method as in PMID 32228987; details: SKMel-147 melanoma cells; cited from earlier work
[7] = tested on: Malme-3M melanoma cell line; design: method as in PMID 32228987; details: Malme-3M melanoma cells; cited from earlier work
[8] = tested on: breast cancer cell line MCF-7; design: method as in PMID 32228987; details: MCF-7 breast cancer cells; cited from earlier work
[9] = Cytotoxicity in Hs27 normal skin fibroblasts (CellTiter-Glo ATP viability); assay type: cell-based; details: human, 48-h incubation, mean (SD) of 2–3 independent experiments in triplicate
Protocol: as §1

[10] = tested on: caspases 3/7 in A-375 cells; test: Apoptosis induction assay, caspase-3/7 activity (ApoTox-Glo) in A-375 cells; assay type: cell-based, human; details: 1 × CC50 concentration
Protocol: Apoptosis induction assay and imaging. A-375 cells were seeded to white 96-well plates and treated with compounds at 1 × CC50 concentration, 100 µL/well, following the procedure described above. After 24 and 48 h, caspase-3/7 activity was measured using the ApoTox-Glo kit (Promega) following the manufacturer’s instructions. The light microscopy images were taken using 4× phase contrast objective and Cytation5 automated imaging reader (Biotek).

[11] = read-out: CC50 (µM) in Hs27 Cells
[12] = A-375, 48 h, read-out: Primary Test Results (Cytotoxicity % at 50 µM in A-375 Cells), 50 µM, A-375 cells, 48-h incubation, single experiment with three technical replicates

| Structure (SMILES) | CC50 at 48 h [9, 11] | CC50 ([4]; A-375, 48 h) | cytotoxicity at 50 µM [4, 12] | Selectivity Index (SI) [4] | also measured |
| --- | --- | --- | --- | --- | --- |
| N=C(N)NCCCCNC(=O)C1=NOC2(C=C(Br)C(=O)C(Br)=C2)C1 [Compound 1-TFA, 7,9-Dibromo-N-(4-guanidinobutyl)-8-oxo-1-oxa-2-azaspiro[4.5]deca-2,6,9-triene-3-carboxamide] | – | – | – | – | Activity against MDA-MB-231 cancer cell line [1]: moderate activity; Activity against MCF7 cancer cell line [2]: moderate activity; Activity against A549 cancer cell line [3]: moderate activity; Primary Test Results (Cytotoxicity % at 50 µM in A-375 Cells) ([4]; 50 µM, A-375 cells, 48-h incubation, single experiment with three technical replicates): less than 25% and 0.5% |
| COC1=C(Br)[C@H](O)[C@@]2(C=C1Br)CC(C(=O)NCC(O)COc1c(Br)cc(C(O)CNC(=O)C3=NO[C@]4(C=C(Br)C(OC)=C(Br)[C@@H]4O)C3)cc1Br)=NO2 (some centres unmarked) [isofistularin-3] | – | – | – | – | Effect on cell viability [5]: no significant decrease; Effect on cell viability [6]: no significant decrease; Effect on cell viability [7]: no significant decrease; Effect on cell viability [8]: reduced cell viability |
| COc1ccc(CCNC(=O)C2=NOC3(C=CC(=O)C=C3)C2)cc1 [Compound 25, N-(4-Methoxyphenethyl)-8-oxo-1-oxa-2-azaspiro[4.5]deca-2,6,9-triene-3-carboxamide] | 2 µM | 1.2 µM | 100% | 1.7 (0.3) | – |
| O=C1C=CC2(C=C1)CC(C(=O)Nc1ccccn1)=NO2 [Compound 28, 8-Oxo-N-(pyridin-2-yl)-1-oxa-2-azaspiro[4.5]deca-2,6,9-triene-3-carboxamide] | 1.5 µM | 1.9 µM | 99.6% | 0.8 (0.4) | – |
| COc1ccc(CNC(=O)C2=NOC3(C=CC(=O)C=C3)C2)cc1 [Compound 23, N-(4-Methoxybenzyl)-8-oxo-1-oxa-2-azaspiro[4.5]deca-2,6,9-triene-3-carboxamide] | 1.4 µM | 1.2 µM | 100% | 1.2 (0.6) | – |
| O=C(Nc1cccnc1)C1=NOC2(C=C(Br)C(=O)C(Br)=C2)C1 [Compound 27, 7,9-Dibromo-8-oxo-N-(pyridin-3-yl)-1-oxa-2-azaspiro[4.5]deca-2,6,9-triene-3-carboxamide] | 6.6 µM | 3 µM | 101% | 2.2 (0.5) | – |
| O=C(NCc1cccnc1)C1=NOC2(C=C(Br)C(=O)C(Br)=C2)C1 [Compound 36, 7,9-Dibromo-8-oxo-N-(pyridin-3-ylmethyl)-1-oxa-2-azaspiro[4.5]deca-2,6,9-triene-3-carboxamide] | 6.1 µM | 3.4 µM | 101% | 1.8 (0.2) | – |
| Cn1nc(-c2ccc(Cl)cc2)cc1NC(=O)C1=NOC2(C=C(Br)C(=O)C(Br)=C2)C1 [Compound 41, 7,9-Dibromo-N-[3-(4-chlorophenyl)-1-methyl-1H-pyrazol-5-yl]-8-oxo-1-oxa-2-azaspiro[4.5]deca-2,6,9-triene-3-carboxamide] | 1.4 µM | 1.3 µM | 97.6% | 1.1 (0.8) | – |
| COc1ccc(NC(=O)C2=NOC3(C=CC(=O)C=C3)C2)cc1Cl [Compound 20, N-(3-Chloro-4-methoxyphenyl)-8-oxo-1-oxa-2-azaspiro[4.5]deca-2,6,9-triene-3-carboxamide] | 1.5 µM | 1.2 µM | 100% | 1.3 (0.5) | – |
| O=C(Nc1cc(Cl)cc(Cl)c1)C1=NOC2(C=C(Br)C(=O)C(Br)=C2)C1 [Compound 19, 7,9-Dibromo-N-(3,5-dichlorophenyl)-8-oxo-1-oxa-2-azaspiro[4.5]deca-2,6,9-triene-3-carboxamide] | 6.8 µM | 9.2 µM | 94.9% | 0.7 (0.5) | – |
| O=C(Nc1ccc(C(F)(F)F)cn1)C1=NOC2(C=C(Br)C(=O)C(Br)=C2)C1 [Compound 30, 7,9-Dibromo-8-oxo-N-[5-(trifluoromethyl)pyridin-2-yl]-1-oxa-2-azaspiro[4.5]-deca-2,6,9-triene-3-carboxamide] | 2.3 µM | 3.6 µM | 98.1% | 0.6 (0.2) | – |
| CC[C@@]1(O)C(=O)OCc2c1cc1n(c2=O)Cc2cc3ccccc3nc2-1 [Camptothecin, reference compound] | – | – | – | 70.9 (0.5) | CC50 at 48 h ([9]; Hs27 skin fibroblast cells): 3.6 µM; Caspase 3/7 induction, fold change relative to DMSO-treated control ([10]; 24 h): ~20 fold; Caspase 3/7 induction, fold change relative to DMSO-treated control ([10]; 48 h): nearly fivefold; cytotoxicity at 50 µM ([4]; 50 µM, A-375 cells, 48-h incubation, single experiment with three technical replicates, read-out: Primary Test Results (Cytotoxicity % at 50 µM in A-375 Cells)): 94.7%; CC50 ([4]; A-375 cells, 48-h incubation, mean (SD) of 2–3 independent experiments in triplicate): 0.05 µM |
